Data from US12049439B2 (OrsoBio, Inc., priority 2018, dated 2024).

What follows are compounds tested on PC-3 cells (assay: PC-3 Oxygen Rate Consumption (OCR) Assay). Settings: Homo sapiens, 0.05 h, medium with 2% FBS, OCR at 3-min post-injection normalized to % increase over DMSO-treated cells, concentration for half-maximal OCR increase, read-out: EC50-PC3-OCR-FBS-3min.
Format: cell-based
Protocol: PC-3 Oxygen Rate Consumption (OCR) Assay Procedure:
One day before the assay, PC-3 cells were seeded at 2.5×10^4 cells/160 μL/well in a 96-well XFe96 cell plate, part of a FlexPak containing a cell plate and a cartridge (Agilent, Sunnyvale, CA). The cells were incubated overnight at 37° C. in a 5% CO2 and 90% humidity incubator with F12K culture medium (ThermoFisher Scientific/Invitrogen, Grand Island, NY) containing 10% FBS and 1% penicillin/streptomycin. On the day of the assay, the cells were washed twice with 300 µL/well Medium A [XF assay medium (Agilent) supplemented 10 mM glucose, 1 mM pyruvate, and 2% fetal bovine serum (FBS)], and incubated with 175 µL/well Media A for 1 hr in a 37° C., non-CO2 incubator prior to the measurement of cellular respiration. Compounds of interests were prepared in 1:2 serial dilutions with 100% DMSO and then further diluted into 8× working stock with Media A prior to being loaded to Injection Port A on a XFe96 Analyzer (Agilent). Six replicates were used for each treatment. The cartridge was calibrated in the XFe96 Analyzer 30 minute prior to the measurement of cellular respiration. Basal levels of OCR were measured three times, each using a “3-minute mixing/3-minute measurement” program. The compound effect was measured immediately after compound injection from Injection Port A, and OCR was monitored continuously 10 times, each time using a “1-minute mixing/2-minute measurement” program for a total of 30 minutes post compound injection. The level of OCR at 3-min post-injection was normalized to % increase over DMSO-treated cells. The concentration of compound required to reach the half-maximal OCR increase was defined as EC50 Table 2 contains PC3 OCR EC50 values for the compounds disclosed.

Compound	EC50
CC(C)S(=O)(=O)Nc1ccc(C(F)(F)F)cc1C(=O)NC12CC(C#N)(C1)C2 [Example 68, N-(3-cyanobicyclo[1.1.1]pentan-1-yl)-2-((1-methylethyl)sulfonamido)-5-(trifluoromethyl)benzamide]	5.13 µM
CS(=O)(=O)Nc1ccc(C(F)(F)F)cc1C(=O)NC12CC3CC(CC(C#N)(C3)C1)C2 [Example 175, N-((1R,5R)-3-cyanoadamantan-1-yl)-2-(methylsulfonamido)-5-(trifluoromethyl)benzamide]	5.98 µM
CS(=O)(=O)Nc1cc(F)ccc1C(=O)NC12CC(C(F)(F)F)(C1)C2 [Example 1, 4-fluoro-2-(methylsulfonamido)-N-(3-(trifluoromethyl)bicyclo[1.1.1]pentan-1-yl)benzamide]	13.1 µM
CC1(S(=O)(=O)Nc2cc(C(F)(F)F)ccc2C(=O)NC23CC(C2)C3)CC1 [Example 66, N-(bicyclo[1.1.1]pentan-1-yl)-2-((1-methylcyclopropane)-1-sulfonamido)-4-(trifluoromethyl)benzamide]	8.35 µM
CCCS(=O)(=O)Nc1ccc(C#N)cc1C(=O)NC12CCC(C#N)(CC1)CC2 [Example 104, 5-cyano-N-(4-cyanobicyclo[2.2.2]octan-1-yl)-2-(propylsulfonamido)benzamide]	37.5 µM
CCS(=O)(=O)c1ccc(S(=O)(=O)Nc2cc(C(F)(F)F)ccc2C(=O)NC23CC(F)(C2)C3)cc1 [Example 26, 2-((4-(ethylsulfonyl)phenyl)sulfonamido)-N-(3-fluorobicyclo[1.1.1]pentan-1-yl)-4-(trifluoromethyl)benzamide]	6.94 µM
N#CC1(S(=O)(=O)Nc2ccc(F)cc2C(=O)NC23CC(C(F)(F)F)(C2)C3)CC1 [Example 242, 2-((1-cyanocyclopropane)-1-sulfonamido)-5-fluoro-N-(3-(trifluoromethyl)bicyclo[1.1.1]pentan-1-yl)benzamide]	4.34 µM
O=C(NC12CC(C(F)(F)F)(C1)C2)c1ccc(C(F)(F)F)cc1NS(=O)(=O)c1ccc(S(=O)(=O)C(F)(F)F)cc1 [Example 33, 4-(trifluoromethyl)-N-(3-(trifluoromethyl)bicyclo[1.1.1]pentan-1-yl)-2-((4-((trifluoromethyl)sulfonyl)phenyl)sulfonamido)benzamide]	1.93 µM
CC(C)S(=O)(=O)Nc1ccc(C(F)(F)F)cc1C(=O)NC12CC(C1)C2 [Example 71, N-(bicyclo[1.1.1]pentan-1-yl)-2-((1-methylethyl)sulfonamido)-5-(trifluoromethyl)benzamide]	6.67 µM
CC1(S(=O)(=O)Nc2cc(C(F)(F)F)ccc2C(=O)NC23CC(C(F)(F)F)(C2)C3)CC1 [Example 63, 2-((1-methylcyclopropane)-1-sulfonamido)-4-(trifluoromethyl)-N-(3-(trifluoromethyl)bicyclo[1.1.1]pentan-1-yl)benzamide]	0.937 µM
CN(C)S(=O)(=O)Nc1ccc(C(F)(F)F)cc1C(=O)NC12CCC(C#N)(CC1)CC2 [Example 190, N-(4-cyanobicyclo[2.2.2]octan-1-yl)-2-((N,N-dimethylsulfamoyl)amino)-5-(trifluoromethyl)benzamide]	4.15 µM
CS(=O)(=O)Nc1ccc(SC(F)(F)F)cc1C(=O)NC12CC(C#N)(C1)C2 [Example 243, N-(3-cyanobicyclo[1.1.1]pentan-1-yl)-2-(methylsulfonamido)-5-((trifluoromethyl)thio)benzamide]	6.14 µM
N#CC12CCC(NC(=O)c3ccc(F)cc3NS(=O)(=O)CCC(F)(F)F)(CC1)CC2 [Example 134, N-(4-cyanobicyclo[2.2.2]octan-1-yl)-4-fluoro-2-((3,3,3-trifluoropropyl)sulfonamido)benzamide]	2.68 µM
N#CC12CCC(NC(=O)c3cc(Cl)ccc3NS(=O)(=O)C3(C#N)CC3)(CC1)CC2 [Example 211, 5-chloro-N-(4-cyanobicyclo[2.2.2]octan-1-yl)-2-((1-cyanocyclopropane)-1-sulfonamido)benzamide]	15.4 µM
NS(=O)(=O)c1ccc(S(=O)(=O)Nc2cc(C(F)(F)F)ccc2C(=O)NC23CC(C(F)(F)F)(C2)C3)cc1 [Example 58, 2-((4-sulfamoylphenyl)sulfonamido)-4-(trifluoromethyl)-N-(3-(trifluoromethyl)bicyclo[1.1.1]pentan-1-yl)benzamide]	63.4 µM
O=C(NC12CC(c3ccccc3)(C1)C2)c1ccc(C(F)(F)F)cc1NS(=O)(=O)c1ccc(OC(F)(F)F)cc1 [Example 31, N-(3-phenylbicyclo[1.1.1]pentan-1-yl)-2-((4-(trifluoromethoxy)phenyl)sulfonamido)-4-(trifluoromethyl)benzamide]	0.595 µM
CS(=O)(=O)c1ccc(S(=O)(=O)Nc2cc(S(F)(F)(F)(F)F)ccc2C(=O)NC23CC(C2)C3)cc1 [Example 155, N-(bicyclo[1.1.1]pentan-1-yl)-2-((4-(methylsulfonyl)phenyl)sulfonamido)-4-(pentafluoro-λ^6-sulfanyl)benzamide]	5.87 µM
O=C(NC12CC(C(F)(F)F)(C1)C2)c1ccc(F)cc1NS(=O)(=O)C1CC1 [Example 2, 2-(cyclopropanesulfonamido)-4-fluoro-N-(3-(trifluoromethyl)bicyclo[1.1.1]pentan-1-yl)benzamide]	3.65 µM
CC(C)(C)S(=O)(=O)Nc1ccc(C#N)cc1C(=O)NC12CC(C(F)(F)F)(C1)C2 [Example 97, 5-cyano-2-((1,1-dimethylethyl)sulfonamido)-N-(3-(trifluoromethyl)bicyclo[1.1.1]pentan-1-yl)benzamide]	1.43 µM
O=C(NC12CC(C(F)(F)F)(C1)C2)c1ccc(F)cc1NS(=O)(=O)c1ccc(S(=O)(=O)C2CC2)cc1 [Example 28, 2-((4-(cyclopropylsulfonyl)phenyl)sulfonamido)-4-fluoro-N-(3-(trifluoromethyl)bicyclo[1.1.1]pentan-1-yl)benzamide]	2.76 µM
CC(C)(C)S(=O)(=O)Nc1cc(C(F)(F)F)ccc1C(=O)NC12CC(C(F)(F)F)(C1)C2 [Example 110, 2-((1,1-dimethylethyl)sulfonamido)-4-(trifluoromethyl)-N-(3-(trifluoromethyl)bicyclo[1.1.1]pentan-1-yl)benzamide]	0.445 µM
O=C(NC12CCC(F)(CC1)CC2)c1cc(C(F)(F)F)ccc1NS(=O)(=O)Cc1ccccc1 [Example 197, N-(4-fluorobicyclo[2.2.2]octan-1-yl)-2-((phenylmethyl)sulfonamido)-5-(trifluoromethyl)benzamide]	0.893 µM
Cc1ncsc1CCS(=O)(=O)Nc1ccc(C(F)(F)F)cc1C(=O)NC12CCC(C#N)(CC1)CC2 [Example 200, N-(4-cyanobicyclo[2.2.2]octan-1-yl)-2-((2-(4-methylthiazol-5-yl)ethyl)sulfonamido)-5-(trifluoromethyl)benzamide]	5.09 µM
COCCOc1ccc(S(=O)(=O)Nc2cc(C(F)(F)F)ccc2C(=O)NC23CC(C(F)(F)F)(C2)C3)cc1 [Example 112, 2-((4-(2-methoxyethoxy)phenyl)sulfonamido)-4-(trifluoromethyl)-N-(3-(trifluoromethyl)bicyclo[1.1.1]pentan-1-yl)benzamide]	1.29 µM
N#CC12CCC(NC(=O)c3ccc(Cl)cc3NS(=O)(=O)CCC(F)(F)F)(CC1)CC2 [Example 135, 4-chloro-N-(4-cyanobicyclo[2.2.2]octan-1-yl)-2-((3,3,3-trifluoropropyl)sulfonamido)benzamide]	1.62 µM
